The source of these data is patent publication US20240109885A1, “2,3-DIHYDRO-1H-PYRROLO[3,2-B]PYRIDINE DERIVATIVE, PREPARATION METHOD THEREFOR, AND APPLICATION THEREOF” (Abbisko Therapeutics Co., Ltd, priority 2020, published 2024).

The structures appear in SMILES notation.

Assay [1] concerns the target Ba/F3 EGFR-V769_D770insASV (Homo sapiens, UniProt P00533, DUP767-769, cells depend on it). The assay can be described thus: Cell proliferation assay (CellTiter-Glo), Ba/F3 EGFR-V769_D770insASV cells. In kind it is cell-based. As to conditions: 72 hrs, CTG assay, * = average of multiple measurements, read-out: Ba/F3 EGFR-V769_D770insASV (nM), IC50 of cell proliferation. How it is done: (§1) I. Cell proliferation assay (i) Reagents and consumables • Fetal bovine serum (FBS) (GBICO, Cat #10099-141); • CellTiter-Glo® Luminescent Cell Viability Assay Kit (Promega, Cat #G7572); • Black transparent flat-bottomed 96-well plate (Corning®, Cat #3603).
(§2) • SpectraMax Multi-Label Microplate Detector MD, 2104-0010A; • CO2 incubator, Thermo Scientific 3100 Series; • Biosafety cabinet, Thermo Scientific, 1300 Series type A2; • Inverted microscope, Olympus, CKX41SF; • Siemens refrigerator KK25E76TI. (iii) Cell lines and culture conditions
(§3) (iv) Experimental procedures 1. Cell culture and seeding: • (1) Cells in the logarithmic growth phase were harvested, and counted using a platelet counter. Cell viability was detected by the trypan blue exclusion assay to ensure that the cell viability was above 90%. • (2) The cell concentration was adjusted to achieve the final density; and 90 μL of the cell suspension was added to the 96-well plate. • (3) The cells were incubated in the 96-well plate overnight at 37° C. in the presence of 5% CO2 with 95% humidity. 2. TO benchmark data: • (1) 10 μL of PBS was added to each well of the TO flat plate containing the cells. • (2) The CTG reagent was thawed, and the cell plate was equilibrated to room temperature for 30 min. • (3) An equal volume of CTG solution was added to each well. • (4) The cells were shaken for 5 min on an orbital shaker for lysis. • (5) The cell plate was left at room temperature for 20 min to stabilize luminescent signals. • (6) The values of TO luminescent signals were read. 3. Compound dilution and addition • (1) According to the compound information table, a corresponding volume of DMSO was added to the corresponding compound powder to prepare a 10 mM stock solution. • (2) Compound solutions diluted at 1000 fold and 3.16 fold were prepared. • (3) The compound solution diluted at 1000 fold was diluted at 100 fold with PBS, to prepare the compound solutions at 10 fold in 9 concentrations, with the maximum concentration of […]; and the compound solution was diluted at 3.16 fold. 10 μL of medicament solution was added to each well of the seeded 96-well plate. Three replicate wells were provided for each concentration of the compound, and the final concentration of DMSO was 0.1%. • (4) Cells were placed in the 96-well plate containing the medicament and subsequently cultured for 72 hrs at 37° C. in the presence of 5% CO2 with 95% humidity, and then, CTG assay was conducted. 4. Reading of luminescent signals • (1) The CTG reagent was thawed, and the cell plate was equilibrated to room temperature for 30 min. • (2) An equal volume of CTG solution was added to each well. • (3) The cells were shaken for 5 min on an orbital shaker for lysis.
(§4) (4) The cell plate was left at room temperature for 20 min to stabilize the luminescent signals. • (5) Luminescent values were read. Data processing
(§5) The data were analyzed using software GraphPad Prism 7.0, and fitted by the nonlinear S-curve regression to obtain a dose-effect curve, based on which the IC50 value (unit: nM) was calculated, with the specific test results shown in Table 1.
(§6) Cell viability (%)=(Lum test medicament-Lum culture medium control)/(Lum cell control-Lum culture medium control)×100%.

Assay [2] addresses Ba/F3 EGFR-D770-N771ins_SVD (Homo sapiens, UniProt P00533, DUP768-770, cells depend on it). Put plainly: Cell proliferation assay (CellTiter-Glo), Ba/F3 EGFR-D770-N771ins_SVD cells. It counts as cell-based. The note with it: 72 hrs, CTG assay, * = average of multiple measurements, read-out: Ba/F3 EGFR-D770-N771ins_SVD (nM), IC50 of cell proliferation. How it is done:
as §1, §2, §3, §4, §5, §6

Sequence of Ba/F3 EGFR-V769_D770insASV (P00533 with tags, fused parts or gaps DUP767-769): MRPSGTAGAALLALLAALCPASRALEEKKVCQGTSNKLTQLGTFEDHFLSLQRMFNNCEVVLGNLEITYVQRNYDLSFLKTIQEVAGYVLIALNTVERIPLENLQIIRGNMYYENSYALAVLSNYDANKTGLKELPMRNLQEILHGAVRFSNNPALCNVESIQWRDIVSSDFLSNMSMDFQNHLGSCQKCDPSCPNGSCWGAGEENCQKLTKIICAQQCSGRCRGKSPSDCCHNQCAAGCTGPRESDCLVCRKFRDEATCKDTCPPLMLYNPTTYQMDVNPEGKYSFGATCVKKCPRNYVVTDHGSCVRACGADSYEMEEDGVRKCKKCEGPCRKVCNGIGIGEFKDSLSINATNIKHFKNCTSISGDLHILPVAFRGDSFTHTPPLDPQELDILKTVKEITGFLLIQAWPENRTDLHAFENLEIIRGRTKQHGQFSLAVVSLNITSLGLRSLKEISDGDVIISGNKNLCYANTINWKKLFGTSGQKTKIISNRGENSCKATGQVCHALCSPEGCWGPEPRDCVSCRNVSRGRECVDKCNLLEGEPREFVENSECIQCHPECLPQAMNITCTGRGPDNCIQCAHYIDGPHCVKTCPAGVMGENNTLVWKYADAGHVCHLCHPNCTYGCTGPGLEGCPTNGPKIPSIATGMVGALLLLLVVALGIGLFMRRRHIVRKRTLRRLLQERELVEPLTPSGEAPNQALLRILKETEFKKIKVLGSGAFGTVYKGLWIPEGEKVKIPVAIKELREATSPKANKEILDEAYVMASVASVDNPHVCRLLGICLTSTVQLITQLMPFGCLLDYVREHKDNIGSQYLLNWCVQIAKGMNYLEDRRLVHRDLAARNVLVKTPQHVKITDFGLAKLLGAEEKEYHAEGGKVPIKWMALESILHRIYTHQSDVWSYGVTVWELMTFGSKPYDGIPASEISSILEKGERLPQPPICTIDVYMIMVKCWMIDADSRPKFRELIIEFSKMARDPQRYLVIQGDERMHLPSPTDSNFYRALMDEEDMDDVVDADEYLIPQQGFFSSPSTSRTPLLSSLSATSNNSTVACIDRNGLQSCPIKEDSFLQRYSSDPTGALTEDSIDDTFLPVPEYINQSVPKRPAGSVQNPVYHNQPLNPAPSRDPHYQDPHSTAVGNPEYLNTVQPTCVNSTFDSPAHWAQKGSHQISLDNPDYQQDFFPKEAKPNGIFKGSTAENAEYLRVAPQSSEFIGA
Sequence of Ba/F3 EGFR-D770-N771ins_SVD (P00533 with tags, fused parts or gaps DUP768-770): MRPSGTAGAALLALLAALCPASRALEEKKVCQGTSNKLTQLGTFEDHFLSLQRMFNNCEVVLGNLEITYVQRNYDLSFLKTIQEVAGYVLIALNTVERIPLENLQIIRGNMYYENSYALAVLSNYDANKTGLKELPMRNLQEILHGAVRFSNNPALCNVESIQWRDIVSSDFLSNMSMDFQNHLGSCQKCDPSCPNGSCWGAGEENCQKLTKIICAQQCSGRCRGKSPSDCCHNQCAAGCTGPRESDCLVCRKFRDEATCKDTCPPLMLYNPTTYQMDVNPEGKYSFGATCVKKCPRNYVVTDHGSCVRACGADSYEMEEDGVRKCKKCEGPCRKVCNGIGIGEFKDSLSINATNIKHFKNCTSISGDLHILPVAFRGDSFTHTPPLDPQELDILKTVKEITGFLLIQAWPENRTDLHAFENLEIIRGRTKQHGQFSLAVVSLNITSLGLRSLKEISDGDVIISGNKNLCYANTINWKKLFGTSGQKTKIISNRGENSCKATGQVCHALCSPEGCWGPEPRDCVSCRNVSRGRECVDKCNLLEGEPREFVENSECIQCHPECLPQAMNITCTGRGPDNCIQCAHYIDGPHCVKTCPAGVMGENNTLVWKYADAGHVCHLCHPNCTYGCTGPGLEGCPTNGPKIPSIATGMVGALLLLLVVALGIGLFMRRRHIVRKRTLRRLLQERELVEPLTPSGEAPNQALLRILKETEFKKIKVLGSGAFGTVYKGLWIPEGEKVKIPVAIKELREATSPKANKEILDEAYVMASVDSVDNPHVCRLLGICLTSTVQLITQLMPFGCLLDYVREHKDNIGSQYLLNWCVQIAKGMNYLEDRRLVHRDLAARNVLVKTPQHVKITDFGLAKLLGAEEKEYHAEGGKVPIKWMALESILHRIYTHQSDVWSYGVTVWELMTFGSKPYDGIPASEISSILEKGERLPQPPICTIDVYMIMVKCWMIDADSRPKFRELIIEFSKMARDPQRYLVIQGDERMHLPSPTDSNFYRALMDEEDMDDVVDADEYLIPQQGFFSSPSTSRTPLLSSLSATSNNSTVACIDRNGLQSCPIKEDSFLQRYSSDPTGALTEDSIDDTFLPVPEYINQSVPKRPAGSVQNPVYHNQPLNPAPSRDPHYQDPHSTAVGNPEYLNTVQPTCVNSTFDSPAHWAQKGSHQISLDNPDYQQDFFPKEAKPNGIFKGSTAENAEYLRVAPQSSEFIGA

On to `COc1cc(N(C)CCN(C)C)c(N)cc1Nc1nccc(N2CC(C)(C)c3ncc(-c4c(F)cccc4F)cc32)n1` [Example 18, N^4-(4-(6-(2,6-difluorophenyl)-3,3-dimethyl-2,3-dihydro-1H-pyrrolo [3,2-b]pyridin-1-yl)pyrimidin-2-yl)-N^1-(2-(dimethylamino)ethyl)-5-methoxy-N^1-methylbenzene-1,2,4-triamine], for which the GI50 in assay [1] came to 142 nM; in assay [2] it was 60 nM.
In the case of `C=CC(=O)Nc1cc(Nc2nccc(N3CC(C)(C)c4ncc(-c5ccccc5F)cc43)n2)c(OC)cc1N(C)CCN(C)C` [Example 19, N-(2-((2-(dimethylamino)ethyl) (methyl)amino)-5-((4-(6-(2-fluoro-phenyl)-3,3-dimethyl-2,3-dihydro-1H-pyrrolo[3,2-b]pyridin-1-yl)pyrimidin-2-yl)amino)-4-methoxy-phenyl)acrylamide], the GI50 in assay [1] came out at 142 nM; in assay [2] it was 41.6 nM.
For `C=CC(=O)Nc1cc(Nc2nccc(N3CC(C)(C)c4nc5c(cc43)CCC5)n2)c(OC)cc1N(C)CCN(C)C` [Example 23, N-(5-((4-(3,3-dimethyl-3,5,6,7-tetrahydrocyclopenta[b]pyrrolo[2,3-e]pyridin-1(2H)-yl)pyrimidin-2-yl)amino)-2-((2-(dimethylamino)ethyl)(methyl)amino)-4-methoxy-phenyl)acrylamide] the same measures were 26.6 nM and 13.8 nM.
For `C=CC(=O)Nc1cc(Nc2ncnc(N3CC(C)(C)c4nc(C)ccc43)n2)c(OCC)cc1N(C)CCN(C)C` [Example 25, N-(2-((2-(dimethylamino)ethyl) (methyl)amino)-4-ethoxy-5-((4-(3,3,5-trimethyl-2,3-dihydro-1H-pyrrolo[3,2-b]pyridin-1-yl)-1,3,5-triazin-2-yl)amino)phenyl)acrylamide] the same measures were 106 nM and 56.5 nM.
`C=CC(=O)Nc1cc(Nc2cc(N3CC(C)(C)c4nc5c(cc43)CCC5)ncn2)c(OC)cc1N(C)CCN(C)C` [Example 26, N-(5-((6-(3,3-dimethyl-3,5,6,7-tetrahydrocyclopenta[b]pyrrolo[2,3-e]pyridin-1(2H)-yl)pyrimidin-4-yl)amino)-2-((2-(dimethylamino)ethyl)(methyl)amino)-4-methoxy-phenyl)acrylamide]: the GI50 in assay [1] was 76.1 nM; in assay [2], 22.9 nM.
Turning to `C=CC(=O)Nc1cc(Nc2nccc(N3CC(C)(C)c4nc(C)c(C)cc43)n2)c(OCC)cc1N(C)CCN(C)C` [Example 27], the GI50 in assay [1] amounted to 68.8 nM; in assay [2], 31.5 nM.
The matching figures for `C=CC(=O)Nc1cc(Nc2cc(N3CC(C)(C)c4nc(C)c(C)cc43)ncn2)c(OCC)cc1N(C)CCN(C)C` [Example 35, N-(2-((2-(dimethylamino)ethyl) (methyl)amino)-4-ethoxy-5-((6-(3,3,5,6-tetramethyl-2,3-dihydro-1H-pyrrolo[3,2-b]pyridin-1-yl)pyrimidin-4-yl)amino)phenyl)acrylamide]: 94.8 nM and 40.1 nM.
Consider `C=CC(=O)Nc1cc(Nc2nccc(N3CC4(CCCC4)c4nc(C)ccc43)n2)c(OCC(F)(F)F)cc1N(C)CCN(C)C` [Example 40], for which the GI50 in assay [2] was found to be 37 nM.
On the same count and under the same terms, in the case of `C=CC(=O)Nc1cc(Nc2ncnc(N3CC(C)(C)c4nc(Br)ccc43)n2)c(OC)cc1N(C)CCN(C)C` [Example 41, N-(5-((4-(5-bromo-3,3-dimethyl-2,3-dihydro-1H-pyrrolo[3,2-b]pyridin-1-yl)-1,3,5-triazin-2-yl)amino)-2-((2-(dimethylamino)ethyl) (methyl)amino)-4-methoxyphenyl) acrylamide] it was 35.5 nM; in that of `C=CC(=O)Nc1cc(Nc2nccc(N3CC(C)(C)c4nc(C)c(C)cc43)n2)c(OC(C)C)cc1N(C)CCN(C)C` [Example 43, N-(2-((2-(dimethylamino)ethyl) (methyl)amino)-4-isopropoxy-5-((4-(3,3,5,6-tetramethyl-2,3-dihydro-1H-pyrrolo[3,2-b]pyridin-1-yl)pyrimidin-2-yl)amino)phenyl)acrylamide], 38.5 nM.
On the same count and under the same terms, in the case of `C=CC(=O)Nc1cc(Nc2nccc(N3CC(C)(C)c4nc(-c5cn[nH]c5)ccc43)n2)c(OC)cc1N(C)CCN(C)C` [Example 58, N-(5-((4-(3,3-dimethyl-5-(1H-pyrazol-4-yl)-2,3-dihydro-1H-pyrrolo[3,2-b]pyridin-1-yl)pyrimidin-2-yl)amino)-2-((2-(dimethylamino)ethyl)(methyl)amino)-4-methoxyphenyl)acrylamide] it was 68.2 nM; in that of `C=CC(=O)Nc1cc(Nc2nccc(N3CC4(CCOCC4)c4nc(C)ccc43)n2)c(OC)cc1N(C)CCN(C)C` [Example 65], 108 nM.
Consider `C=CC(=O)Nc1cc(Nc2cc(N3CC(C)(C)c4nc(-c5cnn(C)c5)ccc43)ncn2)c(OC)cc1N(C)CCN(C)C` [Example 66, N-(5-((6-(3,3-dimethyl-5-(1-methyl-1H-pyrazol-4-yl)-2,3-dihydro-1H-pyrrolo[3,2-b]pyridin-1-yl)pyrimidin-4-yl)amino)-2-((2-(dimethylamino)ethyl)(methyl)amino)-4-methoxyphenyl)acrylamide], for which the GI50 in assay [2] came out at 89.1 nM.
On the same count and under the same terms, in the case of `C=CC(=O)Nc1cc(Nc2cc(N3CC(C)(C)c4nc(-c5cnn(C)c5)ccc43)ccn2)c(OC)cc1N(C)CCN(C)C` [Example 67, N-(5-((4-(3,3-dimethyl-5-(1-methyl-1H-pyrazol-4-yl)-2,3-dihydro-1H-pyrrolo[3,2-b]pyridin-1-yl)pyridin-2-yl)amino)-2-((2-(dimethyl-amino)ethyl)(methyl)amino)-4-methoxyphenyl)acrylamide] it was 108 nM; in that of `C=CC(=O)Nc1cc(Nc2cc(N3CC(C)(C)c4nc(C5CC5)ccc43)ncn2)c(OC)nc1N(C)CCN(C)C` [Example 70, N-(5-((6-(5-cyclopropyl-3,3-dimethyl-2,3-dihydro-1H-pyrrolo[3,2-b]pyridin-1-yl)pyrimidin-4-yl)amino)-2-((2-(dimethylamino)ethyl) (methyl)amino)-6-methoxypyridin-3-yl)acrylamide], 121 nM; in that of `C=CC(=O)Nc1cc(Nc2nccc(N3CC4(CCN(C)C4)c4nc(C)ccc43)n2)c(OC)cc1N(C)CCN(C)C` (centres unmarked) [Example 71, N-(2-((2-(dimethylamino)ethyl) (methyl)amino)-5-((4-(1,5′-dimethyl-spiro[pyrrolidin-3,3′-pyrrolo[3,2-b]pyridin]-1′(2′H)-yl)pyrimidin-2-yl)amino)-4-methoxyphenyl) acrylamide], 372 nM.
On the same count and under the same terms, the value for `C=CC(=O)Nc1cc(Nc2ncnc(N3CC4(CCN(C)C4)c4nc(C)ccc43)n2)c(OC)cc1N(C)CCN(C)C` (centres unmarked) [Example 72, N-(2-((2-(dimethylamino)ethyl) (methyl)amino)-5-((4-(1,5′-dimethyl-spiro[pyrrolidin-3,3′-pyrrolo[3,2-b]pyridin]-1′(2′H)-yl)-1,3,5-triazin-2-yl)amino)-4-methoxyphenyl) acrylamide] was 298 nM; that for `C=CC(=O)Nc1cc(Nc2nccc(N3CC4(CN(C)C4)c4nc(C)ccc43)n2)c(OC)cc1N(C)CCN(C)C` [Example 73, N-(2-((2-(dimethylamino)ethyl) (methyl)amino)-5-((4-(1,5′-dimethyl-spiro[azetidine-3,3′-pyrrolo[3,2-b]pyridin]-1′(2′H)-yl)pyrimidin-2-yl)amino)-4-methoxyphenyl) acrylamide] was 811 nM.
Still for that read-out and setting: in the case of `C=CC(=O)Nc1cc(Nc2nccc(N3CC4(CC(F)(F)C4)c4nc(C)ccc43)n2)c(OC)cc1N(C)CCN(C)C` [Example 74, N-(5-((4-(3,3-difluoro-5′-methyl-spiro[cyclobutane-1,3′-pyrrolo[3,2-b]pyridin]-1′(2′H)-yl)pyrimidin-2-yl)amino)-2-((2-(dimethylamino)ethyl)(methyl)amino)-4-methoxy-phenyl)acrylamide] it was 83.6 nM.
